Test results from paper PMC12553813, “Converting Escherichia coli isochorismatase YecD into γ-lactamase” (Bioresources and Bioprocessing, 2025).

How the values were obtained:
Assay type in all cases: biochemical
YecD [1] = biological target: YecD (Escherichia coli, UniProt P0ADI7, V56A/G134C, form not given); assay: hydrolysis kinetics, chiral HPLC; conditions: standard assay: 50 mM Tris-HCl pH 8.0, 35 °C, racemic γ-lactam
YecD [2] = biological target: YecD (Escherichia coli, UniProt P0ADI7, G134C, form not given); assay: hydrolysis kinetics, chiral HPLC; conditions: standard assay: 50 mM Tris-HCl pH 8.0, 35 °C, racemic γ-lactam
YecD [3] = biological target: YecD (Escherichia coli, UniProt P0ADI7, F23A/G134C, form not given); assay: hydrolysis kinetics, chiral HPLC; conditions: standard assay: 50 mM Tris-HCl pH 8.0, 35 °C, racemic γ-lactam
YecD [4] = biological target: YecD (Escherichia coli, UniProt P0ADI7, W104Y/G134C, form not given); assay: hydrolysis kinetics, chiral HPLC; conditions: standard assay: 50 mM Tris-HCl pH 8.0, 35 °C, racemic γ-lactam
RutB = biological target: T1, RutB (Escherichia coli, UniProt P75897); assay: γ-lactamase activity screen, chiral HPLC; conditions: 50 mM Tris-HCl pH 8.0, 35 °C, 4.6 mM racemic γ-lactam
T1 sequence (P75897 1-230): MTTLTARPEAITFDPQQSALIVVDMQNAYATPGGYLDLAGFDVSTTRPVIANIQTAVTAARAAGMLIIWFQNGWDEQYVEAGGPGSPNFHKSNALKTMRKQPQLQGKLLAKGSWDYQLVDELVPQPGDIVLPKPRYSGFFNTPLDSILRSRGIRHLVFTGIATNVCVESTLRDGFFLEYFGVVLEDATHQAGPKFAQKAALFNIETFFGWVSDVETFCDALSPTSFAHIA

YecD [5] = biological target: YecD (Escherichia coli, UniProt P0ADI7, W104A/G134C, form not given); assay: hydrolysis kinetics, chiral HPLC; conditions: standard assay: 50 mM Tris-HCl pH 8.0, 35 °C, racemic γ-lactam
YecD [6] = biological target: YecD (Escherichia coli, UniProt P0ADI7, V56I/W104E/G134C, form not given); assay: hydrolysis kinetics, chiral HPLC; conditions: standard assay: 50 mM Tris-HCl pH 8.0, 35 °C, racemic γ-lactam
YecD [7] = biological target: YecD (Escherichia coli, UniProt P0ADI7, W104F/G134C, form not given); assay: hydrolysis kinetics, chiral HPLC; conditions: standard assay: 50 mM Tris-HCl pH 8.0, 35 °C, racemic γ-lactam
Sequence of YecD (Escherichia coli, UniProt P0ADI7, W104F/G134C, form not given) (P0ADI7 whole entry W104F/G134C, form open): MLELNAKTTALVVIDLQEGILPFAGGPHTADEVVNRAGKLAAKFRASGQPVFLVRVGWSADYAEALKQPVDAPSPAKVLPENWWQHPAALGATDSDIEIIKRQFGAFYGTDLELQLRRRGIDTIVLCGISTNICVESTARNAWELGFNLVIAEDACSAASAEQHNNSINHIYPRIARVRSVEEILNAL

Sequence of YecD (Escherichia coli, UniProt P0ADI7, F23A/G134C, form not given) (P0ADI7 whole entry F23A/G134C, form open): as the sequence (P0ADI7 whole entry W104F/G134C, form open) above, with F23A, F104W counted along it
Sequence of YecD (Escherichia coli, UniProt P0ADI7, W104A/G134C, form not given) (P0ADI7 whole entry W104A/G134C, form open): as the sequence (P0ADI7 whole entry W104F/G134C, form open) above, with F104A counted along it
Sequence of YecD (Escherichia coli, UniProt P0ADI7, V56A/G134C, form not given) (P0ADI7 whole entry V56A/G134C, form open): as the sequence (P0ADI7 whole entry W104F/G134C, form open) above, with V56A, F104W counted along it
Sequence of YecD (Escherichia coli, UniProt P0ADI7, W104Y/G134C, form not given) (P0ADI7 whole entry W104Y/G134C, form open): as the sequence (P0ADI7 whole entry W104F/G134C, form open) above, with F104Y counted along it
Sequence of YecD (Escherichia coli, UniProt P0ADI7, V56I/W104E/G134C, form not given) (P0ADI7 whole entry V56I/W104E/G134C, form open): as the sequence (P0ADI7 whole entry W104F/G134C, form open) above, with V56I, F104E counted along it
Sequence of YecD (Escherichia coli, UniProt P0ADI7, G134C, form not given) (P0ADI7 whole entry G134C, form open): as the sequence (P0ADI7 whole entry W104F/G134C, form open) above, with F104W counted along it

Km (YecD [1]): 70 ± 3 mM | Km (YecD [2]): 72 ± 4 mM | Km (YecD [3]): 67 ± 4 mM | Km (YecD [4]): 36 ± 3 mM | Km (YecD [5]): 79 ± 3 mM | Km (YecD [6]): 16 ± 2 mM | Km (YecD [7]): 74 ± 3 mM
SMILES: O=C1N[C@@H]2C=C[C@H]1C2 (racemic) [( +) γ-lactam, 2-azabicyclo [2.2.1] hept-5-en-3-one]
γ-lactamase activity screen, chiral HPLC (RutB): Screening for ( +) γ-lactamase activity revealed that only RutB exhibited this catalytic function
